Measured values from ChEMBL document CHEMBL4483862, “Open-source discovery of chemical leads for next-generation chemoprotective antimalarials” (2018).

Test system: Plasmodium berghei
Test: Luciferase/luciferin-expressing antifolate-resistant parasites were used to infect a culture of HepG2 cells that were pre-incubated with compounds. Infected hepatocytes emit light due to the luciferase reaction. Assay results are presented as the percent inhibition of light emission compared to control. […]
Format: functional
Conditions: sporozoite; for IC90: read-out: LUCIFERASE INFECTION ASSAY - IC90
[1] = read-out: LUCIFERASE INFECTION ASSAY - IC50

| SMILES | IC90 | IC50 [1] | also measured |
| --- | --- | --- | --- |
| Cc1cc(C(=O)COc2ccc(CC(=O)O)cc2)c(C)n1CCC(C)C | 7.13 µM |  | IC50 (PBLUC_HILL_SLOPE 4.94, 3.04, PBLUC_R_SQUARED 0.440, 0.373, read-out: LUCIFERASE INFECTION ASSAY - IC50): 5.4 µM |
| CC(OC(=O)/C=C/c1ccc2ccccc2n1)C(=O)NC1CCCc2ccccc21 (centres undefined) | > 10 µM | > 10 µM |  |
| NC(=O)Cc1ccc(C(=O)CSc2ncnc3sc(-c4ccccc4)cc23)s1 | > 10 µM |  | IC50 (PBLUC_HILL_SLOPE 2.63, PBLUC_R_SQUARED 0.33, read-out: LUCIFERASE INFECTION ASSAY - IC50): 7.38 µM |
| CN(C)CCNC(=O)c1cccc(-c2cnc3ccc(-c4cccc(CO)c4)nn23)c1 | 1.58 µM |  | IC50 (HEPG2TOX_HILL_SLOPE 0.999, HEPG2TOX_R_SQUARED 0.943, PBLUC_HILL_SLOPE 3.71, PBLUC_R_SQUARED 0.586, read-out: LUCIFERASE INFECTION ASSAY - IC50): 0.873 µM |
| O=C(Cc1ccccc1)Nc1ccccc1C(=O)Nc1nc2ccccc2[nH]1 | > 10 µM |  | IC50 (HEPG2TOX_HILL_SLOPE 7.34, HEPG2TOX_R_SQUARED 0.432, read-out: LUCIFERASE INFECTION ASSAY - IC50): > 10 µM |
| CN(C)C(=O)COC(=O)c1cccc(CN2C(=O)c3ccccc3C2=O)c1 | > 10 µM | > 10 µM |  |
| COc1ccc(OCc2noc(CN3CCc4ccccc43)n2)cc1 | > 2 µM | > 2 µM |  |
| C=CCN(CC(=O)NC1CCS(=O)(=O)C1)S(=O)(=O)c1ccccc1C(F)(F)F (centres undefined) | > 10 µM |  | IC50 (FFLUC_HILL_SLOPE 0.888, FFLUC_R_SQUARED 0.174, read-out: LUCIFERASE INFECTION ASSAY - IC50): > 10 µM |
| COc1ccccc1NS(=O)(=O)c1ccc2c(c1)N=Cc1c(C)nn(-c3ccc(Cl)cc3)c1O2 | > 10 µM |  | IC50 (HEPG2TOX_HILL_SLOPE 6.8, HEPG2TOX_R_SQUARED 0.772, PBLUC_HILL_SLOPE 15.5, PBLUC_R_SQUARED 0.126, read-out: LUCIFERASE INFECTION ASSAY - IC50): 9.36 µM |
| CN(C)c1ccc(-c2cnc3cnc(-c4ccccc4N(C)C)cn23)cc1 | 0.0642 µM |  | IC50 (HEPG2TOX_HILL_SLOPE 0.323, HEPG2TOX_R_SQUARED 0.566, PBLUC_HILL_SLOPE 1.8, PBLUC_R_SQUARED 0.657, read-out: LUCIFERASE INFECTION ASSAY - IC50): 0.0189 µM |
| CC(=O)N(c1nc(/C=C2\NC(=S)NC2=O)cs1)c1c(C)cccc1C | > 10 µM | 8.24 µM |  |
| CC1=C(c2nc(-c3ccc(C)cc3)no2)C(c2ccco2)NC(=S)N1 (centres undefined) | > 10 µM |  | IC50 (HEPG2TOX_HILL_SLOPE 4.63, HEPG2TOX_R_SQUARED 0.779, PBLUC_HILL_SLOPE 2.07, PBLUC_R_SQUARED 0.517, read-out: LUCIFERASE INFECTION ASSAY - IC50): 7.61 µM |
| O=C(Nc1ccc2c(c1)nc1n2CCCCC1)C1CC=CCC1 (centres undefined) | > 10 µM | > 10 µM |  |
| COc1ccccc1-n1c(SCc2cc(=O)oc3c(C)c(C)ccc23)nc2ccccc2c1=O | > 10 µM | > 10 µM |  |
| O=C(COc1ccccc1-c1ccccc1)Nc1nc(-c2ccccn2)cs1 | 9.35 µM |  | IC50 (HEPG2TOX_HILL_SLOPE 2.53, HEPG2TOX_R_SQUARED 0.481, PBLUC_HILL_SLOPE 10.3, PBLUC_R_SQUARED 0.199, read-out: LUCIFERASE INFECTION ASSAY - IC50): 7.56 µM |
| COc1ccc(Nc2nccc3nc(-c4cccc(OC(F)(F)F)c4)[nH]c23)cc1OC | > 10 µM | 3.54 µM |  |
| CCOC(=O)c1sc(N)c(C#N)c1CSc1nnc(Cc2cccc3ccccc23)n1C1CCCCC1 | 9.87 µM |  | IC50 (PBLUC_HILL_SLOPE 16.7, PBLUC_R_SQUARED 0.489, read-out: LUCIFERASE INFECTION ASSAY - IC50): 8.65 µM |
| Cc1ccc(Nc2ccnc(Nc3ccc(C)cc3)n2)cc1 | > 10 µM |  | IC50 (PBLUC_HILL_SLOPE 2.32, 3.33, PBLUC_R_SQUARED 0.458, 0.517, read-out: LUCIFERASE INFECTION ASSAY - IC50): 4.86 µM |
| CC(=O)Nc1cccc(-c2cn3c(-c4cccs4)cnc3cn2)c1 | > 9.87 µM |  | IC50 (HEPG2TOX_HILL_SLOPE 3.98, HEPG2TOX_R_SQUARED 0.532, PBLUC_HILL_SLOPE 3.16, PBLUC_R_SQUARED 0.221, read-out: LUCIFERASE INFECTION ASSAY - IC50): 5.11 µM |
| CCCC(=O)Nc1ccc(C(=O)C(C)SC2=NN/C(=C3\C=Nc4ccccc43)N2c2ccc(OCC)cc2)cc1 (centres undefined) | > 10 µM |  | IC50 (PBLUC_HILL_SLOPE 9.99, PBLUC_R_SQUARED 0.53, read-out: LUCIFERASE INFECTION ASSAY - IC50): 8.08 µM |
| CC(C)(C)c1cc(C(=O)OCC(=O)N2CCCc3ccccc32)cc(C(C)(C)C)c1 | 9.87 µM |  | IC50 (FFLUC_HILL_SLOPE 12.2, FFLUC_R_SQUARED 0.329, PBLUC_HILL_SLOPE 3.02, PBLUC_R_SQUARED 0.491, read-out: LUCIFERASE INFECTION ASSAY - IC50): 4.77 µM |

| SMILES | IC90 | IC50 [1] | also measured |
| --- | --- | --- | --- |
| O=C(NCCOc1cccc(Oc2ccccc2)c1)c1cccs1 | > 9.72 µM |  | IC50 (HEPG2TOX_HILL_SLOPE 9.69, HEPG2TOX_R_SQUARED 0.418, PBLUC_HILL_SLOPE 2.28, PBLUC_R_SQUARED 0.595, read-out: LUCIFERASE INFECTION ASSAY - IC50): 4.13 µM |
| O=C(Nc1nn2cc(-c3ccccc3)nc2s1)C1CCC1 | 1.39 µM |  | IC50 (FFLUC_HILL_SLOPE 1.5, FFLUC_R_SQUARED 0.884, PBLUC_HILL_SLOPE 0.386, PBLUC_R_SQUARED 0.673, read-out: LUCIFERASE INFECTION ASSAY - IC50): 0.0047 µM |
| Cc1nc(=O)c2c(C)c(C(=O)OCC(=O)/C=C3\N(C)c4ccccc4C3(C)C)sc2[nH]1 | > 10 µM |  | IC50 (HEPG2TOX_HILL_SLOPE 0.0151, HEPG2TOX_R_SQUARED 0.0709, PBLUC_HILL_SLOPE 3.19, PBLUC_R_SQUARED 0.563, read-out: LUCIFERASE INFECTION ASSAY - IC50): 6.65 µM |
| COc1ccc(NC(=O)C2Cc3c(-c4cccc(C(C)=O)c4)ccnc3O2)cc1OC (centres undefined) | > 7.89 µM |  | IC50 (FFLUC_HILL_SLOPE 0.226, FFLUC_R_SQUARED 0.216, HEPG2TOX_HILL_SLOPE 3.1, HEPG2TOX_R_SQUARED 0.695, PBLUC_HILL_SLOPE 3.79, PBLUC_R_SQUARED 0.351, read-out: LUCIFERASE INFECTION ASSAY - IC50): 4.93 µM |
| OC(c1cccc(C(F)(F)F)c1)c1nnc(Nc2ccccc2)s1 (centres undefined) | > 10 µM |  | IC50 (PBLUC_HILL_SLOPE 2.28, PBLUC_R_SQUARED 0.325, read-out: LUCIFERASE INFECTION ASSAY - IC50): 7.1 µM |
| CC(C)c1nnc(SCC(=O)Nc2ccc([N+](=O)[O-])cc2)[nH]1 | > 10 µM | > 10 µM |  |
| O=C(c1c[nH]c(-c2ccccn2)c1)c1cc(Cl)ccc1O | > 10 µM |  | IC50 (HEPG2TOX_HILL_SLOPE 1.74, HEPG2TOX_R_SQUARED 0.992, PBLUC_HILL_SLOPE 2.29, PBLUC_R_SQUARED 0.459, read-out: LUCIFERASE INFECTION ASSAY - IC50): 5.42 µM |
| FC(F)(F)c1cccc(-c2cnc3sc(NCCc4ccncc4)nn23)c1 | > 8.47 µM | > 8.47 µM |  |
| CC(=O)Nc1ccc(-c2cnc3ccc(-c4ccoc4)nn23)cc1 | 4.31 µM | 3.52 µM |  |
| COCCNC(=O)C1(C)CCCN(C(=O)c2ccc(OC)cc2OC)C1 (centres undefined) | > 9.06 µM | > 9.06 µM |  |
| O=C(N1CCC(C(c2ccccc2)c2ccccc2)CC1)C(Cl)(Cl)Cl | > 8.32 µM |  | IC50 (FFLUC_HILL_SLOPE 23.3, FFLUC_R_SQUARED 0.47, HEPG2TOX_HILL_SLOPE 6.45, HEPG2TOX_R_SQUARED 0.799, read-out: LUCIFERASE INFECTION ASSAY - IC50): > 8.32 µM |
| CCn1c(NC(=O)c2csc(Br)c2)nc2ccccc21 | > 10 µM |  | IC50 (PBLUC_HILL_SLOPE 0.956, PBLUC_R_SQUARED 0.162, read-out: LUCIFERASE INFECTION ASSAY - IC50): 5.44 µM |
| CC(Sc1nnc(-c2ccc(C(C)(C)C)cc2)n1Cc1ccco1)C(=O)Nc1ccc(Cl)cn1 (centres undefined) | > 10 µM | > 10 µM |  |
| CC(=O)O/N=C1/CCn2c1c(C)c1ccccc12 | 5.74 µM |  | IC50 (HEPG2TOX_HILL_SLOPE 1.28, HEPG2TOX_R_SQUARED 0.99, PBLUC_HILL_SLOPE 11.8, PBLUC_R_SQUARED 0.596, read-out: LUCIFERASE INFECTION ASSAY - IC50): 4.77 µM |
| c1ccc2c(c1)oc1c(-c3ccc4nccn4c3)cccc12 | > 11.6 µM |  | IC50 (HEPG2TOX_HILL_SLOPE 5.27, HEPG2TOX_R_SQUARED 0.667, PBLUC_HILL_SLOPE 2.08, PBLUC_R_SQUARED 0.703, read-out: LUCIFERASE INFECTION ASSAY - IC50): 4.57 µM |
| O=C(Nc1ccncc1)c1cc([N+](=O)[O-])ccc1Sc1ccccc1 | > 9.39 µM |  | IC50 (PBLUC_HILL_SLOPE 0.732, PBLUC_R_SQUARED 0.239, read-out: LUCIFERASE INFECTION ASSAY - IC50): 3.82 µM |
| Cc1ccn2cc(C(=O)Nc3nnc(CC(C)C)s3)nc2c1 | 3.7 µM |  | IC50 (HEPG2TOX_HILL_SLOPE 9.95, HEPG2TOX_R_SQUARED 0.674, PBLUC_HILL_SLOPE 11.8, PBLUC_R_SQUARED 0.71, read-out: LUCIFERASE INFECTION ASSAY - IC50): 3.07 µM |
| O=C(NCc1cccc(Cl)c1)C1=COC2=NC(=O)N(Cc3cccc(Cl)c3)CCN12 | > 10 µM | > 10 µM |  |
| CCOC(=O)N/N=C(\CC)c1ccc(-c2ccccc2F)cc1 | > 10.5 µM |  | IC50 (HEPG2TOX_HILL_SLOPE 16.9, HEPG2TOX_R_SQUARED 0.877, PBLUC_HILL_SLOPE 3.23, PBLUC_R_SQUARED 0.461, read-out: LUCIFERASE INFECTION ASSAY - IC50): 6.06 µM |
| CC(C)N(Cc1nc(=O)c2ccccc2[nH]1)C(=O)COc1ccccc1Cc1ccccc1 | > 10 µM | > 10 µM |  |
| CCN1C(=O)N(C2Cc3ccccc3C2)C(=O)C12CCN(Cc1c[nH]nc1-c1ccc(F)cc1)CC2 | > 6.77 µM | 4.54 µM |  |
